One experiment concerns the target T1, human AT1 receptor (Homo sapiens, UniProt P30556).
T1 construct: expressed in transfected cells; host or cells: CHO-K1
T1 sequence (P30556 1-359): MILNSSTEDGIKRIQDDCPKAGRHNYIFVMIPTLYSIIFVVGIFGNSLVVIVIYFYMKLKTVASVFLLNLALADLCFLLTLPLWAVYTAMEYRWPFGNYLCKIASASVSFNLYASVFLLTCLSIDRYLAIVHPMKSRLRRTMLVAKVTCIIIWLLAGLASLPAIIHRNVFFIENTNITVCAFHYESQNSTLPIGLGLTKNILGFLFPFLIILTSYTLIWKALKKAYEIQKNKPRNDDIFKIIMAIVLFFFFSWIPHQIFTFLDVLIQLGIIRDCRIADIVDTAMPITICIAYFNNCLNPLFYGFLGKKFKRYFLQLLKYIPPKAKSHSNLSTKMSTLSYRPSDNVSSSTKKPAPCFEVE
The experiment is described as follows: AT1 radioligand binding assay (displacement of [Eu]AngII). The settings on record: membranes of CHO-K1 cells expressing cloned human AT1 receptor; values given as lower bounds; read-out: AT1 pKi (converted). The method, boiled down:
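Membranes from CHO-K1 cells stably expressing cloned human AT1, 0.2 μg protein, in 50 mM Tris/HCl pH 7.5, 5 mM MgCl2, 0.025% BSA. Compounds displaced [Eu]AngII over 120 min in the dark at room temperature or 37° C; filter-bound TRF read. Nonspecific binding with 10 μM angiotensin II; IC50 converted to Ki via Cheng-Prusoff, reported as pKi.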

The next experiment addresses T2, NEP enzyme (Homo sapiens, UniProt P08473).
T2 construct: purchased R&D Systems, Minneapolis, Minn; 1182-ZN
The experiment is described as follows: NEP enzyme inhibition assay (fluorogenic peptide substrate). Particulars: values given as lower bounds; * = prodrugs, may not exhibit NEP activity in an in vitro assay; read-out: NEP pIC50 (converted). The format is biochemical. Summed up: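 Recombinant human NEP was run with Mca-BK2 (10 μM) at room temperature in Tris buffer with 1 μM Zn. Compounds (10 μM–20 pM, 12 points) were pre-equilibrated 10 min, then reacted 20 min and acid-stopped. Fluorescence ex 320/em 405 nm, one-site competition fit gives pIC50. Thiol compounds may be pre-treated with 400 μM TCEP.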

T2 sequence (P08473 52-750 limits assumed): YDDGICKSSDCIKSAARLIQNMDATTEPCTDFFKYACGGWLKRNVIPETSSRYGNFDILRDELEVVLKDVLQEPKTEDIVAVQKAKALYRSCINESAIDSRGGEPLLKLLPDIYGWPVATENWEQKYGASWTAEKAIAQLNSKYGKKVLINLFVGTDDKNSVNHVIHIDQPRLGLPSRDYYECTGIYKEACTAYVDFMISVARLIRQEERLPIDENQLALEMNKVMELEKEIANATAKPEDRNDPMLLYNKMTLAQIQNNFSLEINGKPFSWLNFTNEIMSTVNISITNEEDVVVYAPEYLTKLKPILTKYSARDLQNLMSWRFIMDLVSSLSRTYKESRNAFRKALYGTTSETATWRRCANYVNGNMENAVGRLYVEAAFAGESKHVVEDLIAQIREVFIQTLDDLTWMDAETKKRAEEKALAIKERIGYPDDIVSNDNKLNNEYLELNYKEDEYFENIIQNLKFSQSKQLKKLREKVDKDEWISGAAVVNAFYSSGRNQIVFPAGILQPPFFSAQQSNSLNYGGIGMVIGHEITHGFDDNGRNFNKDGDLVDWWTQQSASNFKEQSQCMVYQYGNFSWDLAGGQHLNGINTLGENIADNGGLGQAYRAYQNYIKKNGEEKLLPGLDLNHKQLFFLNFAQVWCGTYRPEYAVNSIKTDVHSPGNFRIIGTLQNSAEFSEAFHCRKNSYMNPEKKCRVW

As for `CCCc1cc(C(=O)N[C@@H](CC(=O)O)Cc2ccccc2C(F)(F)F)nn1Cc1ccc(-c2ccccc2-c2nnn[nH]2)nc1` [Example 11, (R)-3-[(5-Propyl-1-{6-[2-(1H-tetrazol-5-yl)-phenyl]-pyridin-3-ylmethyl}-1H-pyrazole-3-carbonyl)-amino]-4-(2-trifluoromethylphenyl)butyric Acid], the Ki at human AT1 receptor was not above 0.01 µM. Further, the IC50 on NEP enzyme was not above 0.1 µM.

In the case of `CCOc1cc(C(=O)N[C@H](Cc2ccccc2)[C@@H](O)C(=O)O)nn1Cc1ccc(-c2ccccc2S(=O)(=O)NC(C)=O)cc1F` [Example 6-4, (2R,3R)-3-{[1-(2′-Acetylsulfamoyl-3-fluorobiphenyl-4-ylmethyl)-5-ethoxy-1H-pyrazole-3-carbonyl]amino}-2-hydroxy-4-phenylbutyric acid], on human AT1 receptor, the Ki was not above 0.01 µM. For the same compound, the IC50 on NEP enzyme is not above 0.1 µM.

With `CCCc1cc(C(=O)N[C@@H](CS)CC(C)C)nn1Cc1ccc(-c2ccccc2C(=O)O)cc1F` [Example 9-1, 3′-Fluoro-4′-[3-((R)-1-mercaptomethyl-3-methylbutylcarbamoyl)-5-propylpyrazol-1-ylmethyl]biphenyl-2-carboxylic acid], the Ki at human AT1 receptor is not above 0.1 µM. Also, the IC50 at NEP enzyme is not above 0.1 µM.

Consider `CCCc1cc(C(=O)N[C@H](Cc2ccccc2Cl)[C@@H](O)C(=O)O)nn1Cc1ccc(-c2ccccc2-c2nnn[nH]2)nc1` [Example 14-5, (2R,3R)-4-(2-Chlorophenyl)-2-hydroxy-3-[(5-propyl-1-{6-[2-(1H-tetrazol-5-yl)phenyl]pyridin-3-ylmethyl}-1H-pyrazole-3-carbonyl)amino]butyric acid], for which the Ki on human AT1 receptor is not above 0.01 µM. The IC50 on NEP enzyme was not above 0.1 µM.

In the case of `CCCc1cc(C(=O)N[C@@H](CC(=O)O)Cc2ccsc2)nn1Cc1ccc(-c2ccccc2-c2nnn[nH]2)nc1` [Example 14-10, (R)-3-[(5-Propyl-1-{6-[2-(1H-tetrazol-5-yl)-phenyl]-pyridin-3-ylmethyl}-1H-pyrazole-3-carbonyl)-amino]-4-thiophen-3-yl-butyric acid], the Ki at human AT1 receptor is not above 0.01 µM. Besides, the IC50 on NEP enzyme is not above 0.1 µM.

As for `CCc1cc(C(=O)N[C@H](Cc2ccccc2)[C@@H](O)C(=O)O)nn1Cc1ccc(-c2ccccc2-c2nnn[nH]2)cc1F` [Example 3-37, (2R,3R)-3-({5-Ethyl-1-[3-fluoro-2′-(1H-tetrazol-5-yl)-biphenyl-4-ylmethyl]-1H-pyrazole-3-carbonyl}amino)-2-hydroxy-4-phenylbutyric acid], the Ki at human AT1 receptor was not above 0.1 µM. Further, at NEP enzyme, the IC50 was not above 10 µM.

As for `CCCc1cc(C(=O)N[C@@H](CC(=O)O)Cc2ccccc2)nn1Cc1ccc(-c2ccccc2-c2nnn[nH]2)cc1` [Example 2, (R)-4-Phenyl-3-({5-propyl-1-[2′-(1H-tetrazol-5-yl)-biphenyl-4-ylmethyl]-1H-pyrazole-3-carbonyl}amino)butyric Acid], at human AT1 receptor, the Ki is not above 0.01 µM. In addition, the IC50 on NEP enzyme is not above 10 µM.

Turning to `CCCc1cc(C(=O)N[C@@H](CS)Cc2ccccc2)nn1Cc1ccc(-c2ccccc2S(=O)(=O)NC(C)=O)nc1` [Example 14-3, 1-[6-(2-Acetylsulfamoyl-phenyl)pyridin-3-ylmethyl]-5-propyl-1H-pyrazole-3-carboxylic acid ((R)-1-benzyl-2-mercaptoethyl)amide], the Ki at human AT1 receptor is not above 0.1 µM. Moreover, at NEP enzyme, the IC50 is not above 0.1 µM.

Turning to `CCCc1cc(C(=O)N[C@H](Cc2ccccc2)[C@@H](O)C(=O)O)nn1Cc1ccc(-c2ccccc2-n2nn[nH]c2=O)cc1` [Example 16-3, (2R,3R)-2-Hydroxy-3-({1-[2′-(5-oxo-4,5-dihydrotetrazol-1-yl)-biphenyl-4-ylmethyl]-5-propyl-1H-pyrazole-3-carbonyl}amino)-4-phenylbutyric acid], the Ki on human AT1 receptor was not above 0.01 µM. Further, on NEP enzyme, the IC50 was not above 0.1 µM.

As for `CCOc1cc(C(=O)N[C@H](Cc2ccccc2)[C@@H](O)C(=O)O)nn1Cc1ccc(-c2ccccc2-c2nnn[nH]2)cc1F` [Example 3-8, (2R,3R)-3-({5-Ethoxy-1-[3-fluoro-2′-(1H-tetrazol-5-yl)biphenyl-4-ylmethyl]-1H-pyrazole-3-carbonyl}amino)-2-hydroxy-4-phenylbutyric acid], on human AT1 receptor, the Ki was not above 0.1 µM. Also, at NEP enzyme, the IC50 is not above 1 µM.

As to `CCCc1cc(C(=O)N[C@H](Cc2ccccc2)[C@@H](O)C(=O)O)nn1Cc1ccc(-c2ccccc2S(=O)(=O)NC(=O)[C@@H](C)O)cc1` [Example 7-16, (2R,3R)-2-Hydroxy-3-({1-[2′-((R)-2-hydroxypropionylsulfamoyl)biphenyl-4-ylmethyl]-5-propyl-1H-pyrazole-3-carbonyl}amino)-4-phenylbutyric acid], the Ki on human AT1 receptor is not above 0.01 µM. At NEP enzyme, the IC50 was not above 0.1 µM.

Turning to `CCCc1cc(C(=O)N[C@H](Cc2ccccc2)[C@@H](O)C(=O)O)nn1Cc1ccc(-c2ccccc2S(=O)(=O)NC(=O)c2ccno2)cc1` [Example 7-6, (2R,3R)-2-Hydroxy-3-[(1-{2′-[(isoxazole-5-carbonyl)sulfamoyl]biphenyl-4-ylmethyl}-5-propyl-1H-pyrazole-3-carbonyl)amino]-4-phenylbutyric acid], on human AT1 receptor, the Ki was not above 0.01 µM. In addition, the IC50 on NEP enzyme is not above 1 µM.

For the compound `CCCc1cc(C(=O)N[C@H](Cc2ccccc2)[C@@H](O)C(=O)O)nn1Cc1ccc(-c2ccccc2S(=O)(=O)NC(=O)CO)cc1` [Example 7-15, (2R,3R)-2-Hydroxy-3-({1-[2′-(2-hydroxyacetylsulfamoyl)biphenyl-4-ylmethyl]-5-propyl-1H-pyrazole-3-carbonyl}amino)-4-phenylbutyric acid], the Ki at human AT1 receptor was not above 0.01 µM. The IC50 on NEP enzyme is not above 0.1 µM.

Turning to `CCCc1cc(C(=O)N[C@@H](CC(=O)O)Cc2ccccc2F)nn1Cc1ccc(-c2ccccc2-c2nnn[nH]2)cc1` [Example 3-33, (R)-4-(2-Fluorophenyl)-3-({5-propyl-1-[2′-(1H-tetrazol-5-yl)biphenyl-4-ylmethyl]-1H-pyrazole-3-carbonyl}amino)butyric acid], the Ki at human AT1 receptor was not above 0.01 µM. In addition, the IC50 on NEP enzyme is not above 10 µM.

For the compound `CCCc1cc(C(=O)N[C@@H](CC(=O)O)Cc2ccc(F)cc2)nn1Cc1ccc(-c2ccccc2-c2nnn[nH]2)nc1` [Example 14-13, (R)-4-(4-Fluorophenyl)-3-[(5-propyl-1-{6-[2-(1H-tetrazol-5-yl)phenyl]pyridin-3-ylmethyl}-1H-pyrazole-3-carbonyl)amino]butyric acid], the Ki on human AT1 receptor was not above 0.01 µM. The IC50 at NEP enzyme was not above 0.1 µM.

As for `CCCc1cc(C(=O)N[C@@H](CC(=O)OC)Cc2ccccc2C)nn1Cc1ccc(-c2ccccc2-c2nnn[nH]2)cc1` [Example 3-29, (R)-3-({5-Propyl-1-[2′-(1H-tetrazol-5-yl)-biphenyl-4-ylmethyl]-1H-pyrazole-3-carbonyl}amino)-4-o-tolyl-butyric acid methyl ester], the Ki on human AT1 receptor was not above 0.01 µM. Moreover, the IC50 on NEP enzyme was not above 10 µM.

For the compound `CCCc1cc(C(=O)N[C@H](Cc2ccccc2)[C@@H](O)C(=O)O)nn1Cc1ccc(-c2ccccc2S(=O)(=O)NC(=O)OC)cc1` [Example 5, (2R,3R)-2-hydroxy-3-(1-((2′-(N-(methoxycarbonyl)-sulfamoyl)biphenyl-4-yl)methyl)-5-propyl-1H-pyrazole-3-carboxamido)-4-phenylbutanoic Acid], the Ki on human AT1 receptor was not above 0.01 µM. In addition, the IC50 at NEP enzyme was not above 0.1 µM.

Take `CCCc1cc(C(=O)N[C@@H](CC(=O)O)Cc2cccc(F)c2)nn1Cc1ccc(-c2ccccc2-c2nnn[nH]2)nc1` [Example 14-12, (R)-4-(3-Fluorophenyl)-3-[(5-propyl-1-{6-[2-(1H-tetrazol-5-yl)phenyl]pyridin-3-ylmethyl}-1H-pyrazole-3-carbonyl)amino]butyric acid]: the Ki on human AT1 receptor is not above 0.01 µM. In addition, the IC50 on NEP enzyme was not above 0.1 µM.

In the case of `CCCc1cc(C(=O)N[C@H](Cc2ccccc2)[C@@H](O)C(=O)O)nn1Cc1ccc(-c2ccccc2S(=O)(=O)NC(=O)COC)cc1` [Example 7-8, (2R,3R)-2-Hydroxy-3-({1-[2′-(2-methoxyacetylsulfamoyl)biphenyl-4-ylmethyl]-5-propyl-1H-pyrazole-3-carbonyl}amino)-4-phenylbutyric acid], at human AT1 receptor, the Ki is not above 0.01 µM. The IC50 at NEP enzyme was not above 1 µM.

`CCOc1cc(C(=O)N[C@H](Cc2ccccc2)[C@@H](O)C(=O)O)nn1Cc1ccc(-c2ccccc2-c2nnn[nH]2)cc1` [Example 3-9, (2R,3R)-3-({5-Ethoxy-1-[2′-(1H-tetrazol-5-yl)biphenyl-4-ylmethyl]-1H-pyrazole-3-carbonyl}amino)-2-hydroxy-4-phenylbutyric acid]: the Ki on human AT1 receptor is not above 0.1 µM. At NEP enzyme, the IC50 is not above 1 µM.

For the compound `CCCc1cc(C(=O)N[C@H](Cc2ccccc2)[C@@H](O)C(=O)O)nn1Cc1c(F)cc(-c2ccccc2S(=O)(=O)NC(C)=O)cc1F` [Example 6-19, (2R,3R)-3-(1-((2′-(N-acetylsulfamoyl)-3,5-difluorobiphenyl-4-yl)methyl)-5-propyl-1H-pyrazole-3-carboxamido)-2-hydroxy-4-phenylbutanoic acid], on human AT1 receptor, the Ki was not above 0.01 µM. Also, the IC50 at NEP enzyme is not above 0.1 µM.

(Values after US8350027B2, “Dual-acting pyrazole antihypertensive agents” (Theravance, Inc., priority 2009, dated 2013).)
